How the values were obtained:
[1] = target: T1, Alpha-2A adrenergic receptor (Rattus norvegicus) (UniProt P22909); assay: Displacement of [3H]RX 821002 from Adrenergic alpha-2a receptor in rat cerebral cortex cells at 1 uM; assay type: cell-based
T1 sequence (whole entry): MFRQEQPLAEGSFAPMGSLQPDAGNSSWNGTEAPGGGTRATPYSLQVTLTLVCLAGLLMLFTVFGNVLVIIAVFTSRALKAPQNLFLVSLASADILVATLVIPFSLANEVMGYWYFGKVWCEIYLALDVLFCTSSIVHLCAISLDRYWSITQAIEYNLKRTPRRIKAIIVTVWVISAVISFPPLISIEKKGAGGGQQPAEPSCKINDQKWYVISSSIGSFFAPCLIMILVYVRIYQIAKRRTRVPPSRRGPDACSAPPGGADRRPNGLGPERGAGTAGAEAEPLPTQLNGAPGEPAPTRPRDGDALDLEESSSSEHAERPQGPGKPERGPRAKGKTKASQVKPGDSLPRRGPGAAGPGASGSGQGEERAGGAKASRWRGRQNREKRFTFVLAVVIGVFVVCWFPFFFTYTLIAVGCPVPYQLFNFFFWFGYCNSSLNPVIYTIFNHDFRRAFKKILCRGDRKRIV

[2] = target: Adrenergic receptor alpha-1 (Rattus norvegicus) (UniProt P15823+P23944+P43140); assay: Displacement of [3H]prazosin from Adrenergic alpha-1 receptor in rat cerebral cortex cells at 1 uM; assay type: cell-based
[3] = Toxicity in po dosed Beagle dog; assay type: organism-based, Canis lupus familiaris; conditions: in vivo
[4] = target: T2, 5-hydroxytryptamine receptor 1A (Homo sapiens) (UniProt P08908); assay: Activity against 5HT1A receptor relative to 5-HT by Gi-[35S]GTP-gamma-S binding assay; assay type: functional
T2 sequence (whole entry): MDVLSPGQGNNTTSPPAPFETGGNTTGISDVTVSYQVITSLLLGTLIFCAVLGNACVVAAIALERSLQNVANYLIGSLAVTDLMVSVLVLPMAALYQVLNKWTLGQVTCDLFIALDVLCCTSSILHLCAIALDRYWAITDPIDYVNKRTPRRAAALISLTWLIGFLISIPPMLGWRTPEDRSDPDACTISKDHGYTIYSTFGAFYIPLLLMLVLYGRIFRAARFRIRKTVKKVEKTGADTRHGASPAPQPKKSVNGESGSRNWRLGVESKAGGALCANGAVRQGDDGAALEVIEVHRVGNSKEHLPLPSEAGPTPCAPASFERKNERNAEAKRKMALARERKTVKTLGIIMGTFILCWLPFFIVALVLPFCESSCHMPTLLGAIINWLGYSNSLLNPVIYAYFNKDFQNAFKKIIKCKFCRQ

[5] = Toxicity in po dosed Sprague-Dawley rat; assay type: organism-based; conditions: in vivo
[6] = Cmax in Sprague-Dawley rat at 3 mg/kg, po; assay type: ADME, organism-based; design: dose 3 mg/kg, route oral; conditions: in vivo
[7] = Half life in Beagle dog at 3 mg/kg, po; assay type: ADME, organism-based, Canis lupus familiaris; design: dose 3 mg/kg, route oral; conditions: in vivo
[8] = Cmax in Beagle dog at 3 mg/kg, po; assay type: ADME, organism-based, Canis lupus familiaris; design: dose 3 mg/kg, route oral; conditions: in vivo
[9] = Elimination half life in human; assay type: ADME, organism-based; conditions: in vivo
[10] = Half life in Sprague-Dawley rat at 3 mg/kg, po; assay type: ADME, organism-based; design: dose 3 mg/kg, route oral; conditions: in vivo
D(2) dopamine receptor = D(2) dopamine receptor (Homo sapiens, UniProt P14416); assay: Binding affinity to D2 receptor by radioligand binding assay
[11] = target: T3, Adrenergic receptor alpha-1 (Rattus norvegicus, UniProt P15823+P23944+P43140); assay: Displacement of [3H]prazosin from adrenergic alpha-1 receptor in rat cerebral cortex cells; assay type: cell-based
T3 sequence (P15823 whole entry): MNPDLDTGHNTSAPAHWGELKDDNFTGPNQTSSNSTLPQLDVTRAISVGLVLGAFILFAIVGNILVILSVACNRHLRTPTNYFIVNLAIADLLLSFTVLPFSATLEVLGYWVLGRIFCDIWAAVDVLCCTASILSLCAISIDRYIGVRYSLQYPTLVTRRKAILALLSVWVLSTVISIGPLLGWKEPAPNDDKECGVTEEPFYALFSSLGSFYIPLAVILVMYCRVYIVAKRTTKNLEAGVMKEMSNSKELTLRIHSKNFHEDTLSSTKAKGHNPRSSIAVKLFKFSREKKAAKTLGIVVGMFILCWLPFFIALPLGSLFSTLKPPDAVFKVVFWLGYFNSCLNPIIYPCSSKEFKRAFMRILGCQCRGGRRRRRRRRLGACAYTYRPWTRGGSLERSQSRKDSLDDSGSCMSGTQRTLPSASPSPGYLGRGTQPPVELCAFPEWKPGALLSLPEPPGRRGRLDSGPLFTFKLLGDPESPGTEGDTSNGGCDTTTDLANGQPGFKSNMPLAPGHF
T3 sequence (P23944 whole entry): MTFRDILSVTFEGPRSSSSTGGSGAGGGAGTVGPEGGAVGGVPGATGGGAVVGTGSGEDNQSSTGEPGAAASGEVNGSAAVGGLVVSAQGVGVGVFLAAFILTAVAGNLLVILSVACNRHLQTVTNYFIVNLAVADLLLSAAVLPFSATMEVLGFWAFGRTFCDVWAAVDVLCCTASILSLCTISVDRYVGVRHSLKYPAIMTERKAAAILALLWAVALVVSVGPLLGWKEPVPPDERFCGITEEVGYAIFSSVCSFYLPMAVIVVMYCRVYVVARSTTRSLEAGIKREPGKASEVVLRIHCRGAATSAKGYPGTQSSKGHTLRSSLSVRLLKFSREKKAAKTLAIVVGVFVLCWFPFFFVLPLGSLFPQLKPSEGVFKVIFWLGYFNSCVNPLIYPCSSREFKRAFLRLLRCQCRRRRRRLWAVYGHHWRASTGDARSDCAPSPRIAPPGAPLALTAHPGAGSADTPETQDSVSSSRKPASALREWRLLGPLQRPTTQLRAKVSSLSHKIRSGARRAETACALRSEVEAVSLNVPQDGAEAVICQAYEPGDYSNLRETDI
T3 sequence (P43140 whole entry): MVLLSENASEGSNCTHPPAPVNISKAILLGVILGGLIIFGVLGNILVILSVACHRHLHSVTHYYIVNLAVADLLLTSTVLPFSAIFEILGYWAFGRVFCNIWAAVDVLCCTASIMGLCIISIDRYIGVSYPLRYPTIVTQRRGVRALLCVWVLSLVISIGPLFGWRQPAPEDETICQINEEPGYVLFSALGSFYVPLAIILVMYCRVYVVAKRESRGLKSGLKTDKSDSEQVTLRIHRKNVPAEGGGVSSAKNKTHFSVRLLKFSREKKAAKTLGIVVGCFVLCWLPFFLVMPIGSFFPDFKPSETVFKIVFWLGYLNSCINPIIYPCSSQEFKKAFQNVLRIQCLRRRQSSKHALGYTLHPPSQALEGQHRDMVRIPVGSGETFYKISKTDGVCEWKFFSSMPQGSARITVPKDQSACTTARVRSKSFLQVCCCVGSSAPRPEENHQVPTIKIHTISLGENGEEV

[12] = target: Dopamine D2 receptor and serotonin 1a receptor (Homo sapiens) (UniProt P14416+P08908); assay: Selectivity for D2 receptor over 5HT1A receptor; assay type: protein assay
[13] = target: T4, 5-hydroxytryptamine receptor 1A (Homo sapiens, UniProt P08908); assay: Displacement of [3H]8-OH-DPAT from human 5HT1A receptor in HEK293 cells
T4 sequence (P08908 whole entry): T2 sequence (whole entry)

[14] = Selectivity for adrenergic alpha-1 receptor over 5HT1A receptor

Sequence of D(2) dopamine receptor (P14416 whole entry): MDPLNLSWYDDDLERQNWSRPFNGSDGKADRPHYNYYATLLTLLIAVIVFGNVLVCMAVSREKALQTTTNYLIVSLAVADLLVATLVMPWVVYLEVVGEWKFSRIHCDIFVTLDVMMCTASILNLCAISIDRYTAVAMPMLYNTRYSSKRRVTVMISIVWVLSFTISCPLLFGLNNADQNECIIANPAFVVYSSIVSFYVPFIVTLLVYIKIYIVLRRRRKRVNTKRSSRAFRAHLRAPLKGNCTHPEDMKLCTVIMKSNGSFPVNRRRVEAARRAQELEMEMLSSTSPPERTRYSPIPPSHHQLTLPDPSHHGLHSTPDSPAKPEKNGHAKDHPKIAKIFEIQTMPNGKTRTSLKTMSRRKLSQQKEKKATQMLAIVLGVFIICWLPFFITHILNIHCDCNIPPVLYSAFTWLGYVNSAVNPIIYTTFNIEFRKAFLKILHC
Sequence of Dopamine D2 receptor and serotonin 1a receptor (Homo sapiens) (P14416 whole entry, looked up, one chain of several): as the sequence (P14416 whole entry) above

Q: For `CC(=O)Nc1cccc(N2CCN(CCCCNS(=O)(=O)C3CCCCC3)CC2)c1`, which Activity [1] is on record?
A: < 10%

Q: What about the Activity [2] of the same compound?
A: < 10%

Q: For `CC(=O)Nc1cccc(N2CCN(CCCCNS(=O)(=O)c3ccc(F)cc3)CC2)c1`, which Activity [1] is on record?
A: < 10%

Q: What about the Activity [2] of the same compound?
A: 39%

Q: Which Activity [1] does the source give for `CCCC(=O)Nc1cccc(N2CCN(CCCCNS(=O)(=O)c3ccc(C)cc3)CC2)c1` here?
A: 12%

Q: What about the Activity [2] of the same compound?
A: 12%

Q: With `CCS(=O)(=O)Nc1cccc(N2CCN(CCCCNS(=O)(=O)c3ccc(C)cc3)CC2)c1` as the compound, how does the Activity [1] read?
A: 14%

Q: What about the Activity [2] of the same compound?
A: 47%

Q: For `Cc1ccc(S(=O)(=O)NCCCCN2CCN(c3cccc(NC(=O)C(C)(C)C)c3)CC2)cc1`, which Activity [1] is on record?
A: 11%

Q: What about the Activity [2] of the same compound?
A: 0%

Q: For `Cc1ccc(S(=O)(=O)NCCCCN2CCN(c3cccc(NS(C)(=O)=O)c3)CC2)cc1`, which Activity [1] is on record?
A: 21%

Q: And the Activity [2]?
A: 51%

Q: Which Activity [1] does the source give for `Cc1ccc(S(=O)(=O)NCCCCN2CCN(c3ccccc3)CC2)cc1` here?
A: 90%

Q: What about the Activity [2] of the same compound?
A: 98%

Q: With `O=C(Nc1cccc(N2CCN(CCCCNS(=O)(=O)CC3CCCCC3)CC2)c1)C1CC1` as the compound, how does the Activity [1] read?
A: < 10%

Q: What about the Activity [2] of the same compound?
A: 10%

Q: Which results are given for `O=C1CC2(CCCC2)CC(=O)N1CCCCN1CCN(c2ncccn2)CC1` [BUSPIRONE]?
A: LD50 [3]: 586 mg/kg; Activity [4]: 50%; LD50 [5]: 196 mg/kg; Cmax [6]: 4 ng/mL; half-life [7]: 1 h; Cmax [8]: 146 ng/mL; half-life [9]: 2 h; half-life [10]: 1 h

Q: With `CC1(C)CC(=O)N(CCCCN2CCN(c3ncccn3)CC2)C(=O)C1` [GEPIRONE] as the compound, how does the Ki (D(2) dopamine receptor) read?
A: 58 nM

Q: What about the Activity [4] of the same compound?
A: 80%

Q: What about the half-life [9] of the same compound?
A: 6 h

Q: Which results are given for `O=C1c2ccccc2S(=O)(=O)N1CCCCN1CCN(c2ncccn2)CC1` [IPSAPIRONE]?
A: Ki (D(2) dopamine receptor): 110 nM; Ki [11]: 229 nM; Ratio Ki [12]: 18; Ki [13]: 6 nM; half-life [9]: 2 h; Ratio Ki [14]: 38

Q: For `O=C1CCC(=O)N1C[C@H]1CC[C@H]2CN(c3ncccn3)CCN2C1` [SUNEPITRON], which Ki [11] is on record?
A: 35 nM

Q: And the Ki [13]?
A: 92 nM

Q: And the half-life [9]?
A: 2 h

Q: What about the Ratio Ki [14] of the same compound?
A: 0.4
